Results reported in patent US8759033B2, “CSNR-deficient actinobacteria for the production of an enzyme having chitosanase activity” (Socpra Sciences et Genie S.E.C., priority 2012, dated 2014).

Key:
CsnR [1] = biological target: T1, CsnR (Streptomyces lividans, UniProt A0ABN4DYL3); assay: EMSA sugar binding assay: interference with CsnR binding to csnA-WT operator; details: for effect on CsnR binding to operator (summary statement): equilibrium competition experiment and IC50 determination; for effect on gel shift pattern of CsnR with csnA-WT operator: saccharide at 500 nM, FIG. 9; for interference with CsnR binding to the csnA-WT probe: maximal tested concentration of 75 mM
T1 sequence (A0ABN4DYL3 entry or part of it): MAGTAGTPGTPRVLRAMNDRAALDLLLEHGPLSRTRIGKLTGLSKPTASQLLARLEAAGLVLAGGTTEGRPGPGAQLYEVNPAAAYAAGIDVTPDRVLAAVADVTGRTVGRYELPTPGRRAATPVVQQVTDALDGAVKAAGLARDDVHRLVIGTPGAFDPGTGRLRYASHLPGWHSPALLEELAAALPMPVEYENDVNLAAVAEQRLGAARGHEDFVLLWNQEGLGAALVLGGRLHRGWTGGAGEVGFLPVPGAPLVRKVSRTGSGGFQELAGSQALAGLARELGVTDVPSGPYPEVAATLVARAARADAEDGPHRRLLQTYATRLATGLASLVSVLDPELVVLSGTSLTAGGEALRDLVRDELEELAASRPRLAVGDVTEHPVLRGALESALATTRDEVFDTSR
Procedure: For the electrophoretic mobility shift assay (EMSA), pairs of complementary oligonucleotides were annealed, generating double-stranded oligonucleotides csnA-WT (wild type), csnA-M1, csnA-M2, csnA-MM, and csnR-WT (see Table 3). Fifty picomoles of double-stranded oligonucleotide was end labeled with ^[γ-32P]ATP (3,000 Ci/mmol) and 20 U of T4 polynucleotide kinase and purified on a G-25 column. DNA binding reaction mixtures (24 μl) contained 10 mM HEPES (pH 7.9), 10% glycerol, 0.2 mM EDTA, 0.5 mM phenylmethylsulfonyl fluoride (PMSF), 0.25 mM DTT, 1 μg poly(dI-dC), and 150 mM KCl. For equilibrium dissociation constant (KD) determination, various concentrations of labeled csnA-WT or csnR-WT probe (0.1 nM to 1.5 nM) and ˜8.5 pmol of purified CsnR were used. For the determination of the 50% inhibitory concentration (IC50) of the DNA competitors, 0.03 nM labeled csnA-WT probe and ˜8.5 pmol of CsnR were used with various concentrations of competitor double-stranded oligonucleotide (0.1 to 125 nM). For the sugar binding assay, ˜8.5 pmol of CsnR was preincubated with glucose, GlcNAc, galactosamine, GlcN, or chitosan oligosaccharides (GlcN)2 to ([…]) in the binding reaction mixture for 15 min on ice before the addition of labeled csnA-WT probe (0.03 nM). Reaction mixtures were incubated at room temperature for 15 min with the labeled probe and then subjected to electrophoresis at 4° C. in a prerun gel (15 min) of 6% polyacrylamide (10 mM Tris, 80 mM glycine, 0.4 mM EDTA [pH 8.3]). Following electrophoresis, gels were dried, and band intensities were visualized with a Phosphorlmager™ and estimated with ImageQuant™ software (version 5.2). All determinations were done in triplicate. KD calculations were done with the Michaelis-Menten nonlinear fit (least squares), and the one-site log IC50 nonlinear fit (least squares) was used for IC50 calculations (GraphPad Prism™ version 5.03 for Windows; GraphPad, San Diego, Calif.).

CsnR [2] = biological target: T1, CsnR; assay: EMSA equilibrium competition with DNA competitors against labeled csnA-WT probe; details: competitor double-stranded oligonucleotide 0.1 to 125 nM, 0.03 nM labeled csnA-WT probe, ~8.5 pmol CsnR, three independent experiments; read-out: IC50 (nM), effect of mutations in the operator sequence on CsnR binding
Procedure: For the electrophoretic mobility shift assay (EMSA), pairs of complementary oligonucleotides were annealed, generating double-stranded oligonucleotides csnA-WT (wild type), csnA-M1, csnA-M2, csnA-MM, and csnR-WT (see Table 3). Fifty picomoles of double-stranded oligonucleotide was end labeled with ^[γ-32P]ATP (3,000 Ci/mmol) and 20 U of T4 polynucleotide kinase and purified on a G-25 column. DNA binding reaction mixtures (24 μl) contained 10 mM HEPES (pH 7.9), 10% glycerol, 0.2 mM EDTA, 0.5 mM phenylmethylsulfonyl fluoride (PMSF), 0.25 mM DTT, 1 μg poly(dI-dC), and 150 mM KCl. For equilibrium dissociation constant (KD) determination, various concentrations of labeled csnA-WT or csnR-WT probe (0.1 nM to 1.5 nM) and ˜8.5 pmol of purified CsnR were used. For the determination of the 50% inhibitory concentration (IC50) of the DNA competitors, 0.03 nM labeled csnA-WT probe and ˜8.5 pmol of CsnR were used with various concentrations of competitor double-stranded oligonucleotide (0.1 to 125 nM). For the sugar binding assay, ˜8.5 pmol of CsnR was preincubated with glucose, GlcNAc, galactosamine, GlcN, or chitosan oligosaccharides (GlcN)2 to (GlcN)5 at various concentrations (0.00075 to 75 mM) in the binding reaction mixture for 15 min on ice before the addition of labeled csnA-WT probe (0.03 nM). Reaction mixtures were incubated at room temperature for 15 min with the labeled probe and then subjected to electrophoresis at 4° C. in a prerun gel (15 min) of 6% polyacrylamide (10 mM Tris, 80 mM glycine, 0.4 mM EDTA [pH 8.3]). Following electrophoresis, gels were dried, and band intensities were visualized with a Phosphorlmager™ and estimated with ImageQuant™ software (version 5.2). All determinations were done in triplicate. KD calculations were done with the Michaelis-Menten nonlinear fit (least squares), and the one-site log IC50 nonlinear fit (least squares) was used for IC50 calculations (GraphPad Prism™ version 5.03 for Windows; GraphPad, San Diego, Calif.).

Molecule | effect on CsnR binding to operator (summary statement) (CsnR [1]) | effect on gel shift pattern of CsnR with csnA-WT operator (CsnR [1]) | interference with CsnR binding to the csnA-WT probe (CsnR [1]) | effect on CsnR binding to operator (summary statement) (CsnR [1]; listed as (GlcN)2) | IC50 (CsnR [2]) [nM]
N[C@H]1C(O)O[C@H](CO)[C@@H](O)[C@@H]1O (stereo partly drawn) [GlcN, D-glucosamine] | impaired | strongly affected |  |  | 
CC(=O)N[C@H]1C(O)O[C@H](CO)[C@@H](O)[C@@H]1O (stereo partly drawn) [GlcNAc, N-acetyl-D-glucosamine] | no effect | no effect | do not interfere |  | 
NC1C(OC2C(CO)OC(O)C(N)C2O)OC(CO)C(O)C1O (stereo not drawn) [chitosan dimer] | best effector | strongly affected |  | preferential CsnR ligand molecule | 
NC1C(OC2C(CO)OC(OC3C(CO)OC(OC4C(CO)OC(OC5C(CO)OC(O)C(N)C5O)C(N)C4O)C(N)C3O)C(N)C2O)OC(CO)C(O)C1O (stereo not drawn) [chitosan pentamer] |  | strongly affected |  |  | 
N[C@H]1C(O)O[C@H](CO)[C@H](O)[C@@H]1O (stereo partly drawn) [galactosamine] | no effect |  | do not interfere |  | 
O=C[C@H](O)[C@@H](O)[C@H](O)[C@H](O)CO [glucose] | no effect | no effect | do not interfere |  | 
csnA-M1: double-stranded oligonucleotide, csnA operator mutated at position +2, SEQ ID NO: 43 (DNA CCTCTTCTGGTAGGAAACTGTCCTATCAGT; double-stranded, further chemistry not given here) |  |  |  |  | 52.1
csnA-M2: double-stranded oligonucleotide, csnA operator mutated at position +6, SEQ ID NO: 44 (DNA CCTCTTCTGGTAGGAAACTTTCCGATCAGT; double-stranded, further chemistry not given here) |  |  |  |  | 2.7
csnA-MM: double-stranded oligonucleotide, csnA operator doubly mutated at +2 and +6, SEQ ID NO: 45 (CCTCTTCTGGTAGGAAACTGTCCGATCAGT; double-stranded, further chemistry not given here) |  |  |  |  | 105
csnA-WT: double-stranded oligonucleotide, wild-type csnA operator, SEQ ID NO: 42 (CCTCTTCTGGTAGGAAACTTTCCTATCAGT; double-stranded, further chemistry not given here) |  |  |  |  | 1.3
